Measured values reported in US12486218B2, “Compounds advantageous in the treatment of central nervous system diseases and disorders” (AurimMed Pharma, Inc., priority 2008, dated 2025).
Where two headings read alike, the source gives them in different places. Values belong to the compound of their own block, whether it stands above or below them.

Assays:
[1] = test system: rat dopaminergic N27 cells; assay: N27 protection assay against oxidative stress (H2O2 or MPP+; MTT and LDH); type: cell-based; conditions: drug 24 hours before 200 μM H2O2 or 640 μM MPP+
Text: FIGS. 20A-25D data are shown illustrating neuroprotective and neuroregenerative effects observed in rat dopaminergic N27 cells. Rat dopaminergic N27 cells are commonly used in in vitro and in vivo model systems for studying Parkinson's disease. Parkinson's disease is a neurodegenerative disorder of the central nervous system that affects more than 6 million people worldwide. The motor symptoms of Parkinson's disease result from the death of dopamine generating cells in the substantia nigra, a region of the midbrain.
The N27 rat dopaminergic neuron cell line was harvested from E12 rat mesencephalic tissue and was transfected with SV40 to immortalize the cell line. The N27 cell line, when injected into the striata of 6-hydroxydopamine-lesioned rats (an animal model of PD) caused a time-dependent improvement in neurological deficits. This immortalized cell line has been carefully characterized in studies of dopamine biosynthesis, neurotoxicity and used as a dopaminergic neuron model studies.
The N27 in vitro Parkinson's disease model included a test of cell viability and cell toxicity in response to exposure to oxidative stress (e.g., either 200 μM H2O2 or 640 μM MPP+).
Cell viability was tested using the MTT assay. The MTT assay is a colorimetric analysis based on the activities of mitochondrial NAD(P)H-dependent cellular oxidoreductase enzymes. These enzymes are capable of reducing the tetrazolium dye, MTT [3-(4,5-dimethylthiazol-2-yl)-2,5-diphenyltetrazolium] bromide, to an insoluble formazan (purple). […] More viable cells equal more accumulation of the insoluble formazan dye.
Cell toxicity was tested using the […] (LDH) assay. Cells that are stressed secrete LDH. In general, the more cells are stressed, the LDH they secrete into their media. The LDH assay is a reliable colorimetric assay to measure quantitatively the […] (LDH) that is released into the cell culture media from damaged cells as a biomarker for cytotoxicity and cytolysis.
FIGS. 20A-25D present data from two types of assays: protection and recovery assays. In the protection assays, the drug candidate was applied to the cells at various concentrations for 24 hours, followed by the exposure to oxidative stress (either 200 μM H2O2 or 640 μM MPP+) for measuring neuroprotective effect. H2O2 provides a broad measure of oxidative stress, while MPP+ gives a more specific oxidative stress to dopaminergic neurons.
The protection assay results are shown in panels A-C of FIGS. 20-25 In the recovery assays, the cells were first damaged by exposure to H2O2 and then various concentrations of the drug were applied to the cells. The results for the recovery assays are shown the D panels of FIGS. 20-25.

SMN2 promoter = SMN2 promoter β-lactamase reporter assay in NSC34 motor neuron-like cells; type: cell-based; conditions: for Promoter (SMN2 promoter test, summary YES/NO): Table 13 summary; for SMN2 promoter activity: treatment for 19 hours at a concentration of 1 μM
Protocol: FIG. 30 illustrates a screen for SMN2 expression of a number of compounds described herein.
SMN2 promoter activity was measured using NSC34 motor neuron-like cells stably transfected with a β-lactamase (BLA) reporter gene under the control of a 3.4-kilobase fragment of the SMN2 promoter. D156844 was used as a positive control for this assay.

mice [2] = assay: Maximal Electroshock Seizure (MES) test, mice i.p.; type: in vivo; conditions: for MES, fraction of animals: mice i.p.; for activity in the MES test: mice
mice [3] = assay: 6 Hz (minimal clonic seizure) model, mice i.p.; type: in vivo; conditions: for activity in the 6 Hz (minimal clonic seizure) model: mice, at 100 mg/kg; for 6 Hz (32 mA), fraction of animals: mice i.p.
mice [4] = assay: Subcutaneous Metrazol Seizure threshold (s.c. MET) test, mice i.p.; type: in vivo; conditions: mice; at 300 mg/kg
mice [5] = assay: Minimal motor impairment (MID50), mice i.p.; conditions: mice i.p.; 100 mg/kg @ 0.5 hr
[6] = test system: inclusion of exon 7 in SMN2 mRNAs; assay: Exon 7 inclusion BLA reporter assay in NSC34 cell line; type: cell-based; conditions: for effect on the inclusion of exon 7 in SMN2 transcripts: NSC34 exon 7 BLA reporter cells
Text: To measure changes in the inclusion of exon 7 in SMN2 mRNAs, another NSC34 cell line was used that stably transfected with a reporter construct which expresses BLA when exon 7 is included in the SMN2 minigene mRNAs. 5-(N-ethyl-N-isopropyl)-amiloride (EIPA) was used as a positive control for this assay. Data for tis assay is illustrated in FIG. 30.

rats = assay: Pilocarpine-induced Status Epilepticus in Rats (prevention; intervention @ 30 min)
[7] = Rattus norvegicus, read-out: Prevention, Protection

SMILES: Cc1nc(C)c(C(C)CC(N)=O)cc1C(C)CC(N)=O (mixture of isomers) [DA]
neuroprotective effect against H2O2 and MPP+ oxidative stresses (MTT and LDH assays) [1]: statistically significant, dose-dependent neuroprotection | Promoter (SMN2 promoter test, summary YES/NO) (SMN2 promoter): YES | SMN2 promoter activity (SMN2 promoter): increased SMN2 promoter activity

SMILES: CC1CCN(C(=O)CC(C)c2ccc(OC(F)(F)F)cc2)CC1 (stereo not drawn) [BK, 1-(4-Methyl-piperidin-1-yl)-3-(4-trifluoromethoxy-phenyl)-butan-1-one]
MES, fraction of animals (mice [2]; 100 mg/kg @ 0.5 hr): 1/3 | MES, fraction of animals (mice [2]; 100 mg/kg @ 2.0 hr): 2/3 | activity in the 6 Hz (minimal clonic seizure) model (mice [3]): activity | neuroprotective effect against H2O2 and MPP+ oxidative stresses (MTT and LDH assays) [1]: statistically significant, dose-dependent neuroprotection | Promoter (SMN2 promoter test, summary YES/NO) (SMN2 promoter): YES | SMN2 promoter activity (SMN2 promoter): increased SMN2 promoter activity

MID50, fraction of animals (mice [5]): 4/8 @ 0.5 hrs,
SMILES: CC(CC(=O)N(C)C)c1ccc(OC(F)(F)F)cc1 (stereo not drawn) [BD, N,N-Dimethyl-3-(4-trifluoromethoxy-phenyl)-butyramide]
MES, fraction of animals (mice [2]; 100 mg/kg @ 0.5 hr): 1/1 @ | activity in the MES test (mice [2]; at 100 mg/kg): activity | activity in the s.c. MET test (mice [4]): activity | 6 Hz (32 mA), fraction of animals (mice [3]; 100 mg/kg @ 2.0 hr): 2/4 @ 0.5,

SMILES: CC(CC(N)=O)c1ccc2c(c1)OCO2 (stereo not drawn) [L, 3-(3,4-methylenedioxy-phenyl)butyramide]
activity in the MES test (mice [2]; at 300 mg/kg): activity | activity in the s.c. MET test (mice [4]): activity | SMN2 promoter activity (SMN2 promoter): increased SMN2 promoter activity | effect on the inclusion of exon 7 in SMN2 transcripts [6]: positive effect on the inclusion of exon 7 | Exon 7 inclusion (summary YES/NO) ([6]; Table 13 summary): YES | responders at 600 mg/kg (rats; Rattus norvegicus, 0.5 h, read-out: Intervention @ 30 min, Protection): 29% | responders at 450 mg/kg (rats; [7]): 100%

SMILES: COc1ccc(C(CC(N)=O)C2CC2)cc1C (stereo not drawn) [AN, 3-Cyclopropyl-3-(4-methoxy-3-methyl-phenyl)propionamide]
MES, fraction of animals (mice [2]; 100 mg/kg @ 0.25 hr): 1/3 @ | activity in the MES test (mice [2]; at 100 mg/kg): activity | 6 Hz (32 mA), fraction of animals (mice [3]; 100 mg/kg @ 0.25 hr): 4/4 | 6 Hz (32 mA), fraction of animals (mice [3]; 100 mg/kg @ 0.5 hr): 3/4 | 6 Hz (32 mA), fraction of animals (mice [3]; 100 mg/kg @ 1.0 hr): 1/4 @ | activity in the 6 Hz (minimal clonic seizure) model (mice [3]): activity | Promoter (SMN2 promoter test, summary YES/NO) (SMN2 promoter): YES | SMN2 promoter activity (SMN2 promoter): increased SMN2 promoter activity | effect on the inclusion of exon 7 in SMN2 transcripts [6]: positive effect on the inclusion of exon 7

SMILES: CC(CC(=O)N(C)C)c1ccc2c(c1)OCO2 (stereo not drawn) [Compound N, N,N-dimethyl-3-(3,4-methylenedioxy-phenyl)butyramide]
MES, fraction of animals (mice [2]; 100 mg/kg @ 0.5 hr): 1/3 @0.5 hr, | activity in the MES test (mice [2]; at 300 mg/kg): activity | neuroprotective effect against H2O2 and MPP+ oxidative stresses (MTT and LDH assays) [1]: potent dose-dependent neuroprotective effects

SMILES: CC(CC(N)=O)c1ccc(S(C)(=O)=O)cc1 (racemic) [AV]
neuroprotective effect against H2O2 and MPP+ oxidative stresses (MTT and LDH assays) [1]: statistically significant, dose-dependent neuroprotection | Prevention, Protection (rats; rats, pilocarpine-induced status epilepticus, dose 600 mg/kg): 25%

SMILES: CNC(=O)CC(C)c1ccc2c(c1)OCO2 (stereo not drawn) [Compound M, N-methyl-3-(3,4-methylenedioxy-phenyl)butyramide]
neuroprotective effect against H2O2 and MPP+ oxidative stresses (MTT and LDH assays) [1]: potent dose-dependent neuroprotective effects | Promoter (SMN2 promoter test, summary YES/NO) (SMN2 promoter): YES | SMN2 promoter activity (SMN2 promoter): increased SMN2 promoter activity | responders at 600 mg/kg (rats; [7]): 100%

MID50, fraction of animals (mice [5]): 1/8 @0.5 hr
SMILES: C[C@H](CC(N)=O)c1ccccc1 [Compound C, (R)-3-Phenylbutyramide]
MES, fraction of animals (mice [2]; 100 mg/kg @ 0.5 hr): 1/6 @0.5 hr, | activity in the MES test (mice [2]; at 100 mg/kg): activity
